Experimental data published in a compilation of properties of binary mixtures (doi:10.1016/j.molliq.2013.09.012).

Experiment: xn = mol fraction of the nth substance listed
Settings: 298.15 K, 101 kPa

Structure (SMILES)	viscosity (x2 = 0) [mPa·s]	viscosity (x2 = 0.1) [mPa·s]	viscosity (x2 = 0.1449) [mPa·s]	viscosity (x2 = 0.4008) [mPa·s]	viscosity (x2 = 0.4992) [mPa·s]	viscosity (x2 = 0.6009) [mPa·s]	viscosity (x2 = 0.7007) [mPa·s]	viscosity (x2 = 0.8983) [mPa·s]	viscosity (x1 = 0.1949) [mPa·s]	viscosity (x1 = 0.2959) [mPa·s]	viscosity (x1 = 0.3803) [mPa·s]	viscosity (x1 = 0.5991) [mPa·s]	viscosity (x1 = 0.7005) [mPa·s]	viscosity (x1 = 0.8066) [mPa·s]	viscosity (x1 = 1) [mPa·s]
CCCCCC[n+]1ccn(C)c1.F[B-](F)(F)F + CC(C)(C)O	171.8	131.4	115.6	49.8	34.1	23.3	18	11							
CCCN + CCCCCC[n+]1ccn(C)c1.F[B-](F)(F)F									97.3	69.2	50.3	17.7	10.1	4.466	0.358
CC(C)(C)O + CCCCCC[n+]1ccn(C)c1.F[B-](F)(F)F															4.444
